Measurements as given in publication PMC11211886 (Frontiers in Pharmacology, 2024).

What was measured:
MATE2-K = MATE2-K (Homo sapiens, UniProt Q86VL8); assay: MATE2-K inhibition, tetraethylammonium uptake in transfected HEK293 cells; details: for Percentage transported / Uptake rate: MATE2-K
Description: The pre-incubation solutions were removed, and incubation solutions containing the inhibitors and probe substrates (or transport buffer containing an equal volume of vehicle control and probe substrates) were added and incubated at 37°C for 2 min (5 min for OATP1B3). The probe substrate for OAT1 was 4-aminohippuric acid (10 μM), for OAT3 was estrone 3-sulfate (10 μM), for OCT2 was metformin (100 μM), for OATP1B1 was β-estradiol 17-(β-D-glucuronide) (5 μM), for OATP1B3 was β-estradiol 17-(β-D-glucuronide) (10 μM), and for MATE1 and MATE2-K was tetraethylammonium (10 μM). After incubation, cells were washed three times with ice-cold transport buffer (25 mM HEPES, pH 7.4, pH 8.0 for overexpressing MATE1 and MATE2-K HEK293 cells) and lysed in distilled water. The concentrations of probe substrates were determined by LC-MS/MS, and a BCA Kit (Solarbio ®Life Sciences, Beijing, China) was used to determine the protein content in the cell lysate.
where C is the concentration of the drug in the cell lysate (nM), P is the protein concentration of the cell lysate (mg/mL), and T is the incubation time (minute). Uptake ratetest compound is the uptake rate of the substrate in the presence of the test compound. Uptake ratevehicle control is the uptake rate of the substrate in the presence of the vehicle control. Uptake ratepassive is the uptake rate of the substrate in the presence of the positive inhibitor at the top test concentration.

CYP2C9 = assay: CYP induction in human hepatocytes, CYP2C9 enzyme activity
Description: (§1) […] […] […] Enzyme activity for each CYP isoform was reported as a fold change over vehicle control and the percent of positive control (detailed calculation in Supplementary 1.1). Hepatocytes were harvested with a lysis buffer from RNeasy 96 Kit (Qiagen Inc., Germantown, MD, USA) to isolate RNA, which was analyzed by real-time quantitative polymerase chain reaction (RT-PCR). […] Emax (the maximal observed induction) and EC50 (the concentration that supports half-maximal induction) were estimated by non-linear regression of fold increase in CYP mRNA expression versus concentration plots.
(§2) The fold of vehicle control and the percent of positive control were calculated with the formulas below:
(§3) Fold of vehicle control = CYPs activity of test compound (or positive control) treated sample / CYPs activity of vehicle control treated sample
(§4) % of positive control = [(fold change in treated sample)-1] / [(fold change in positive control)-1] × 100
(§5) Based on the enzyme activity, a minimum of 2-fold increase compared to vehicle control for the positive control and ≥40% of the positive control for the test article was considered as the cutoff for a positive signal in in vitro induction assay.

CYP2C8 = assay: CYP induction in human hepatocytes, CYP2C8 enzyme activity
Description: as §1, §2, §3, §4, §5

P-gp = P-gp (Homo sapiens, UniProt P08183); assay: P-gp inhibition, digoxin transport across Caco-2 monolayers
Excerpt: (§6) The experimental conditions were similar to those of the permeability study.

BCRP = biological target: T1, BCRP (Homo sapiens, UniProt Q9UNQ0); assay: in vitro; details: human
T1 sequence (Q9UNQ0 1-655): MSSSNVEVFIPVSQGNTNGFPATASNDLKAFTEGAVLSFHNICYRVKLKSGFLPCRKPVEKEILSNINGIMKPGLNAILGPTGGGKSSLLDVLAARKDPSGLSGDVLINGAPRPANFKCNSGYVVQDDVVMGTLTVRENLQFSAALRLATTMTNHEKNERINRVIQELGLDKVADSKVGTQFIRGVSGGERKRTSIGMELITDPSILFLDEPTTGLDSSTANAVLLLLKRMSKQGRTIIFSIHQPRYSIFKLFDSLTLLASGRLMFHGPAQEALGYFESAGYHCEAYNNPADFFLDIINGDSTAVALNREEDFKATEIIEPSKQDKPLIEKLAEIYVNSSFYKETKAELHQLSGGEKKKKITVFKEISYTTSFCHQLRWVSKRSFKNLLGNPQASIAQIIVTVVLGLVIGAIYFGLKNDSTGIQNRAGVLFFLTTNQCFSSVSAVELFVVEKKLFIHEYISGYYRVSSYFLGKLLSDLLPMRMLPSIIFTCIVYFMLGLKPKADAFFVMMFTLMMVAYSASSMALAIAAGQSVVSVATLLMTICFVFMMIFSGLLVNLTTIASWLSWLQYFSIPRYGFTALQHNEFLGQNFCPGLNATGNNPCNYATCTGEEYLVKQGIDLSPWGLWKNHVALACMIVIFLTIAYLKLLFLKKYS
Excerpt: as §6

MATE2-K, sequence (Q86VL8 1-566 isoform Q86VL8-3): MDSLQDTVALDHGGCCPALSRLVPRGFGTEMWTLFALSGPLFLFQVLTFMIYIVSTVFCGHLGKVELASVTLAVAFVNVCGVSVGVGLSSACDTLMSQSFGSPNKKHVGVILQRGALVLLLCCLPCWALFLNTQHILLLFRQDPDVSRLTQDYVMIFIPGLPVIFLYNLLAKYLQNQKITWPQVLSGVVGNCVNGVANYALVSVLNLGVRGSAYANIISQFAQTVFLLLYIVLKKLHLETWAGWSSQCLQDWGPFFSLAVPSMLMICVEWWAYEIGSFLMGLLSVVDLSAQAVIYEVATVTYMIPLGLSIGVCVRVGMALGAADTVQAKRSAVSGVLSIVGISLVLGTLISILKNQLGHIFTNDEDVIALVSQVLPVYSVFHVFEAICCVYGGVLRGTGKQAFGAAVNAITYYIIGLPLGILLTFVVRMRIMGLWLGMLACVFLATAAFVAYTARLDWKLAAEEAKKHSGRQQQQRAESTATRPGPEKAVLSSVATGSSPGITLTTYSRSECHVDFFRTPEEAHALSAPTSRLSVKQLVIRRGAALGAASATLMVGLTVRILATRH
P-gp, sequence (P08183 whole entry): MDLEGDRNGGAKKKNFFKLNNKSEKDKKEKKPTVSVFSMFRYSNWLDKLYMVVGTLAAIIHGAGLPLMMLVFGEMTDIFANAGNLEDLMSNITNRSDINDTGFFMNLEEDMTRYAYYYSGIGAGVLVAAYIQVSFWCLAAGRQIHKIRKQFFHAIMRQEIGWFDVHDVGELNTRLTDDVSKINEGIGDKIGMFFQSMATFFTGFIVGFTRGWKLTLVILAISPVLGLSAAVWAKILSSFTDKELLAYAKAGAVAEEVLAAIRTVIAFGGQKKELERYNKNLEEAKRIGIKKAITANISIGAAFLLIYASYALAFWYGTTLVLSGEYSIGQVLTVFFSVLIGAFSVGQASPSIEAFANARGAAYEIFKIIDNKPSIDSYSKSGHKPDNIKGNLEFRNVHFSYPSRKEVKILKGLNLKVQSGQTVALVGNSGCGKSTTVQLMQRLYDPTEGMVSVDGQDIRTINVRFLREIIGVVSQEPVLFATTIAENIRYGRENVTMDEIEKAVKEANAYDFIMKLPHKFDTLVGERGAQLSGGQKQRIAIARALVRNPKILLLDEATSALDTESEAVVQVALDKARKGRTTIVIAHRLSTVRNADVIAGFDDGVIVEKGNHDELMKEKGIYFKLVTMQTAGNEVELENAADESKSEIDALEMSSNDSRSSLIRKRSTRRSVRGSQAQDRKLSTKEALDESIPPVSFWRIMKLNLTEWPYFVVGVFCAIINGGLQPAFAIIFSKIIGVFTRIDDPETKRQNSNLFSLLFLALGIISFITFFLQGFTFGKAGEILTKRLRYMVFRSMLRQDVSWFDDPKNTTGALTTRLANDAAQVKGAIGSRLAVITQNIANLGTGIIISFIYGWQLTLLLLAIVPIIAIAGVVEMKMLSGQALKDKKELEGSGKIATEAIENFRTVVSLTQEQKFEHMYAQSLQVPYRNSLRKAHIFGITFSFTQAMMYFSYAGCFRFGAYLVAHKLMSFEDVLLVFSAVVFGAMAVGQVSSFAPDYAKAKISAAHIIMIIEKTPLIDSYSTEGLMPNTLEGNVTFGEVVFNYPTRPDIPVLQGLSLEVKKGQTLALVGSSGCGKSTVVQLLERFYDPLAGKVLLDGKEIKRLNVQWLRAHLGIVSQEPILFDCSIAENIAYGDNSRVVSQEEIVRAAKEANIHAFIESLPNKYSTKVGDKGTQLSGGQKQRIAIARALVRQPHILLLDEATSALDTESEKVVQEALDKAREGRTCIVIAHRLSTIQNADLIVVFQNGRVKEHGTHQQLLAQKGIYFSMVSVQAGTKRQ

In the case of C[C@H](Nc1ncnc(N)c1C#N)c1cc2ncc(Cl)n2nc1-c1ccccc1 [Amdizalisib], the IC50 (MATE2-K) is reported as 38.2 µM, the “calculated R value (MATE2-K)” value (MATE2-K) is reported as < 1.1 and the Percentage transported (MATE2-K; compound 0.3 μM) is reported as 87.1%. It also gave an Uptake rate (MATE2-K; compound 0.3 μM) of 125±3.49 pmol/mg protein/min, a Percentage transported (MATE2-K; compound 1 μM) of 89.9% and an Uptake rate (MATE2-K; compound 1 μM) of 129±7.96 pmol/mg protein/min. The Percentage transported (MATE2-K; compound 3 μM) was 89.0%, the Uptake rate (MATE2-K; compound 3 μM) was 127±5.50 pmol/mg protein/min and the Percentage transported (MATE2-K; compound 10 μM) was 89.6%. For the same compound, the Uptake rate (MATE2-K; compound 10 μM) was 128±4.89 pmol/mg protein/min, the Percentage transported (MATE2-K; compound 30 μM) was 49.3% and the Uptake rate (MATE2-K; compound 30 μM) was 73.9±6.49 pmol/mg protein/min. It also gave a Percentage transported (MATE2-K; compound 100 μM) of 29.6%, an Uptake rate (MATE2-K; compound 100 μM) of 47.4±3.61 pmol/mg protein/min and an inhibition at 2 min, 0.3 µM (MATE2-K; human, pH 8) of 12.9%. The inhibition at 2 min, 1 µM (MATE2-K; human, pH 8) was 10.1%, the inhibition at 2 min, 3 µM (MATE2-K; human, pH 8) was 11% and the inhibition at 2 min, 10 µM (MATE2-K; human, pH 8) was 10.4%. For the same compound, the inhibition at 2 min, 30 µM (MATE2-K; human, pH 8) was 50.7%, the inhibition at 2 min, 100 µM (MATE2-K; human, pH 8) was 70.4% and the “Enzyme activity Percent of PC (%)” value (CYP2C9; CYP2C9, donor eight, 20 µM) was 14.5%. For the same compound, the “Enzyme activity Percent of PC (%)” value (CYP2C9; female, human, 48 h, 0.3 µM) was 5.63%, the “Enzyme activity Percent of PC (%)” value (CYP2C9; female, human, 48 h, 3 µM) was 30.0% and the “Enzyme activity Percent of PC (%)” value (CYP2C9; female, human, 48 h, 20 µM) was 38.1%. The “Enzyme activity Percent of PC (%)” value (CYP2C9; male, human, 48 h, 20 µM) was 36.5%, the “Enzyme activity Percent of PC (%)” value (CYP2C8; CYP 2C8, donor one, 3 µM) was 10.8% and the “Enzyme activity Percent of PC (%)” value (CYP2C8; female, human, 48 h, 0.3 µM) was 5.21%. For the same compound, the “Enzyme activity Percent of PC (%)” value (CYP2C8; female, human, 48 h, 20 µM) was -19.4%, the IC50 (P-gp) was 22.9 µM and the inhibition at 60 min, 0.5 µM (P-gp; human) was -3.22%. It also gave an inhibition at 60 min, 2 µM (P-gp; human) of 1.75%, an inhibition at 60 min, 5 µM (P-gp; human) of 17% and an inhibition at 60 min, 20 µM (P-gp; human) of 46.5%. The inhibition at 60 min, 40 µM (P-gp; human) was 58.4%, the inhibition at 60 min, 60 µM (P-gp; human) was 75.9% and the inhibition at 60 min, 80 µM (P-gp; human) was 83.6%. It also gave an inhibition at 60 min, 0.1 µM (BCRP) of 28.5%, an inhibition at 60 min, 0.5 µM (BCRP) of 34.2% and an inhibition at 60 min, 2 µM (BCRP) of 21.3%. The inhibition at 60 min, 5 µM (BCRP) was 24.2%, the inhibition at 60 min, 10 µM (BCRP) was 43.6% and the inhibition at 60 min, 40 µM (BCRP) was 52.9%. For the same compound, the inhibition at 60 min, 60 µM (BCRP) was 66.4% and the inhibition at 60 min, 80 µM (BCRP) was 52%.
